Assay results: ChEMBL document CHEMBL2074303, “Transport of the glutathione conjugate of ethacrynic acid by the human multidrug resistance protein MRP” (FEBS Lett, 1996)

How the values were obtained:
[1] = target: Multidrug resistance-associated protein 1 (Homo sapiens, UniProt P33527); assay: TP_TRANSPORTER: inhibition of DNP-SG uptake (DNP-SG: 10 uM, Glutathione S-conjugate of ethacrynic acid: 10uM) in membrane vesicles from S1(MRP) cells; type: functional, cell membranes, Membrane vesicle; parameters: scale not given: the % may be the effect or the level left
Sequence of Multidrug resistance-associated protein 1 (P33527 whole entry): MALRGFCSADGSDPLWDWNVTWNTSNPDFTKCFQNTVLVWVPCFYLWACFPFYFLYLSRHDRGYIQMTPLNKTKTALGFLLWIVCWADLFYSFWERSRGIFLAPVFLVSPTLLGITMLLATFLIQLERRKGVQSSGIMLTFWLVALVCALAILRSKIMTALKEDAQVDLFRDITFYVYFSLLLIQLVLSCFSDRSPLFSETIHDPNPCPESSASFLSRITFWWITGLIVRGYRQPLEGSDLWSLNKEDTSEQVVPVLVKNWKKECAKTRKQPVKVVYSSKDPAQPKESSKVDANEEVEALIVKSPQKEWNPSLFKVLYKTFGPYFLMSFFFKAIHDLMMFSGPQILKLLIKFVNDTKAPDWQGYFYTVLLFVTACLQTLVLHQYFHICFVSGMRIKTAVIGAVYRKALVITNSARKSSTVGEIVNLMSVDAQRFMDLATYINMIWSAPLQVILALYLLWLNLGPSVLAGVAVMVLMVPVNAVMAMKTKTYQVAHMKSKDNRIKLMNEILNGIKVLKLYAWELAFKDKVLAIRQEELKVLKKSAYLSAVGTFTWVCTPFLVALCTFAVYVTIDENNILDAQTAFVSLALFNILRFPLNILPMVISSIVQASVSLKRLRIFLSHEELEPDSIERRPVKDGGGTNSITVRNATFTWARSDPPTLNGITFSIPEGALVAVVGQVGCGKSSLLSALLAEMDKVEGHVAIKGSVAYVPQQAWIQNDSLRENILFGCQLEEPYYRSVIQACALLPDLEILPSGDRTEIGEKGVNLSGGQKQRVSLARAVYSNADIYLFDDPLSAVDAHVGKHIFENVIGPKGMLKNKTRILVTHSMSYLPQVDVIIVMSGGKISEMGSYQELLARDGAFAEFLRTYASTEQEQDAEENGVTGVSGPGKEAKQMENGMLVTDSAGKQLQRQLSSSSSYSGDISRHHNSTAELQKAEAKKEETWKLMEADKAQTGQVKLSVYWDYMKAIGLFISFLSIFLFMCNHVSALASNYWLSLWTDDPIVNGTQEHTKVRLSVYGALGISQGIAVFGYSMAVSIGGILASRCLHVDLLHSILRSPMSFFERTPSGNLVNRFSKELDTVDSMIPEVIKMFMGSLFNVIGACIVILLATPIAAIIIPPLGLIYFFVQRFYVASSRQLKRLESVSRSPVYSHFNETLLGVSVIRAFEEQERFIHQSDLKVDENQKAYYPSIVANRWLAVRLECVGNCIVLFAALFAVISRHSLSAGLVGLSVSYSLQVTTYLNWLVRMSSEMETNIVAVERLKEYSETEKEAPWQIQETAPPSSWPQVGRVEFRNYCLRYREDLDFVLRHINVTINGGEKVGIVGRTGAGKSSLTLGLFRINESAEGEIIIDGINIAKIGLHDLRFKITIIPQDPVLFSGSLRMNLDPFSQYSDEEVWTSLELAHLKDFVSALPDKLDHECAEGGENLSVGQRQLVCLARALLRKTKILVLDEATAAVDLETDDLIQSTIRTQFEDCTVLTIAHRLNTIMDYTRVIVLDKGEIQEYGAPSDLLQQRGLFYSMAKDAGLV

[2] = target: Multidrug resistance-associated protein 1 (MRP1) (Homo sapiens, UniProt P33527); assay: TP_TRANSPORTER: inhibition of DNP-SG uptake (DNP-SG: 10 uM, 4-Glutathionyl cyclophosphamide: 1000uM) in membrane vesicles from S1(MRP) cells; type: functional, cell membranes, Membrane vesicle; parameters: scale not given: the % may be the effect or the level left; details: probe DNP-SG, read-out: Activity
Sequence of Multidrug resistance-associated protein 1 (MRP1) (P33527 whole entry): as above

| Structure (SMILES) | Activity [1] | activity at 1000 µM [2] |
| --- | --- | --- |
| CCC(CSC[C@@H](NC(=O)CC[C@H](N)C(=O)O)C(=O)NCC(=O)O)C(=O)c1ccc(OCC(=O)O)c(Cl)c1Cl (some centres not stated) | 4% |  |
| NC(CCC(=O)NC(CSC1CCOP(=O)(N(CCCl)CCCl)N1)C(=O)NCC(=O)O)C(=O)O (configuration not stated) |  | 44% |
